Source: patent publication US10287269B2, “Pyrazolyl pyrimidinone compounds as PDE2 inhibitors” (Merck Sharp & Dohme Corp., priority 2015, dated 2019)

These compounds were tested against T1, Rhesus PDE2A3 (Macaca mulatta, UniProt B3VTJ2) (assay: PDE2 fluorescence polarization (IMAP FP) inhibition assay, rhesus enzyme). Conditions: Lab A; read-out: Rhesus PDE2 Ki (nM) Lab A.
T1 construct: made in house; host or cells: AD293 cells, transient transfection, pcDNA3.3-TOPO; lysate supernatant used as enzyme
T1 sequence (B3VTJ2 1-941): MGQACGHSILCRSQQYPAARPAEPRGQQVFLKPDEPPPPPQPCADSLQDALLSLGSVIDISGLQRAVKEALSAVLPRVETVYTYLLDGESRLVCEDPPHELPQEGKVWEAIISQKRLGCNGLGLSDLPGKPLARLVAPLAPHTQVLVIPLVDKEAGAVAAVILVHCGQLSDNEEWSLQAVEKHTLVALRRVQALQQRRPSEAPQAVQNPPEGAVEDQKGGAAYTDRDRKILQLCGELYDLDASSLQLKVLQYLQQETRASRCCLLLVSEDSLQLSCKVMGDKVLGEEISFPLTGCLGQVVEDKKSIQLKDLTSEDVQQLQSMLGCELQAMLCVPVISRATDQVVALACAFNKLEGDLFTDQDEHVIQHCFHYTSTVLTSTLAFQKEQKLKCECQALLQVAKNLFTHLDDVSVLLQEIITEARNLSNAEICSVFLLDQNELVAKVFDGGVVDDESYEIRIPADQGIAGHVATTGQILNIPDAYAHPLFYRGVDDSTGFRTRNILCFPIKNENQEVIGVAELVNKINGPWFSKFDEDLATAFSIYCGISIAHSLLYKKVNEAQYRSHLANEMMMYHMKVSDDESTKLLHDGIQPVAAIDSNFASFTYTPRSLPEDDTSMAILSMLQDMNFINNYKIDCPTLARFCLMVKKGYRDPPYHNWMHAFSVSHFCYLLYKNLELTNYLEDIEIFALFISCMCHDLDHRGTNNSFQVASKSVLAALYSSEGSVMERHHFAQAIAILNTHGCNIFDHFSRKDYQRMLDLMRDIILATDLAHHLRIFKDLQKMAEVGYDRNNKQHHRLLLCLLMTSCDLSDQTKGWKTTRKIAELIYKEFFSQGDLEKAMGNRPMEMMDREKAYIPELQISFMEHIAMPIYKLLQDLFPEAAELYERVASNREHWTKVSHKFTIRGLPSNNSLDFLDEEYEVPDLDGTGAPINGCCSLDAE
Assay type: biochemical, rhesus macaque
Experimental: The activity of the compounds in accordance with the present invention as PDE2 inhibitors may be readily determined using a fluorescence polarization (FP) methodology (Huang, W., et al., J. Biomol Screen, 2002, 7: 215).
In a typical experiment the PDE2 inhibitory activity of the compounds of the present invention was determined in accordance with the following experimental method. Rhesus PDE2A3 was amplified from rhesus macaque brain cDNA (Biochain Institute, Hayward, Calif.) using primers based on human PDE2A sequence (accession NM_002599.3) where the forward primer containing a Kozak consensus was 5′-[…]-3′ and the reverse primer was 5′-[…]-3′. Amplification with Easy-A High-Fidelity PCR cloning enzyme (Stratagene, La Jolla, Calif.) was 95° C. for 2 minutes followed by thirty three cycles of 95° C. for 40 seconds, 52° C. for 30 seconds, and 72° C. for 2 minutes 48 seconds. Final extension was 72° C. for 7 minutes. The PCR product was TA cloned into pcDNA3.3-TOPO (Invitrogen, Carlsbad, Calif.) according to standard protocol. A consensus sequence was developed from multiple clones and then deposited into GenBank (EU812167). AD293 cells (Stratagene, La Jolla, Calif.) with 70-80% confluency were transiently transfected with rhesus PDE2A3/pcDNA3.3-TOPO using Lipofectamine 2000 according to manufacturer specifications (Invitrogen, Carlsbad, Calif.). Cells were harvested 48 hours post-transfection and lysed by sonication (setting 3, 10×5 sec pulses) in a buffer containing 20 mM HEPES pH 7.4, 1 mM EDTA and Complete Protease Inhibitor Cocktail Tablets (Roche, Indianapolis, Ind.). Lysate was collected by centrifugation at 75,000×g for 20 minutes at 4° C. and supernatant utilized for evaluation of PDE2 activity. The fluorescence polarization assay for cyclic nucleotide phosphodiesterases was performed using an IMAP® FP kit supplied by Molecular Devices, Sunnyvale, Calif. (product # R8139). […] Assays were performed at room temperature in 384-well microtiter plates with an incubation volume of 20.2 μL. Solutions of test compounds were prepared in DMSO and serially diluted with DMSO to yield 8 μL of each of 10 solutions differing by 3-fold in concentration, at 32 serial dilutions per plate. […] 0% of inhibition is determined by using DMSO (1% final concentrations).
A Labcyte Echo 555 (Labcyte, Sunnyvale, Calif.) is used to dispense 200 nL from each well of the titration plate to the 384 well assay plate. Ten microliters of a solution of enzyme (1/2000 final dilution from aliquots; sufficient to produce 20% substrate conversion) was added to the assay plate. Next 10 uL of a separate solution of the substrate FAM-labeled cAMP (50 nM final concentration product # R7506 from Molecular Devices) and the activator cGMP (1 uM final concentration), prepared in the assay buffer (10 mM Tris HCl, pH 7.2, 10 mM MgCl2, 0.05% NaN3 0.01% Tween-20, and 1 mM DTT) was added to the assay plate and shaken to mix. The reaction is allowed to proceed at room temperature for 60 minutes. A binding solution is then made from the kit components, comprised of 80% Solution A, 20% Solution B and binding reagent at a volume of 1/600 the total binding solution. The enzymatic reaction is stopped by addition of 60 μl, of the binding solution to each well of the assay plates and the plates are sealed and shaken for 30 seconds. The plate was incubated at room temperature for at least one hour prior to determining the fluorescence polarization (FP). The parallel and perpendicular fluorescence of each well of the plate was measured using a Tecan Genios Pro plate reader (Tecan, Switzerland) or Perkin Elmer EnVision™ plate reader (Waltham, Mass.). Fluorescence polarization (mP) was calculated from the parallel (S) and perpendicular (P) fluorescence of each sample well and the analogous values for the median control well, containing only substrate (So and Po), using the following equation: Polarization (mP)=1000*(S/So−P/Po)/(S/So+P/Po).
With `Cc1nc(-c2cnn(C(C)C3CCOCC3)c2)cc(=O)[nH]1` (stereo not drawn) [Example 68, 2-methyl-6-(1-(1-(tetrahydro-2H-pyran-4-yl)ethyl)-1H-pyrazol-4-yl)pyrimidin-4(3H)-one] the Ki was 30100 nM.

Same assay, conditions: Lab B; read-out: Rhesus PDE2 Ki (nM) Lab B
Work on `Cc1nc(-n2cc(C(C)c3ccncc3)cn2)cc(=O)[nH]1` (stereo not drawn) [Example 54, 2-methyl-6-[4-(1-pyridin-4-ylethyl)-1H-pyrazol-1-yl]pyrimidin-4(3H)-one] yielded a Ki of 18200 nM.
Work on `Cc1nc(-n2cc(C(C)c3ccc(OC(F)(F)F)cc3C)cn2)cc(=O)[nH]1` (stereo not drawn) [Example 55, 2-methyl-6-(4-(1-(2-methyl-4-(trifluoromethoxy)phenyl)ethyl)-1H-pyrazol-1-yl)pyrimidin-4(3H)-one] yielded a Ki of 467 nM.
In the case of `Cc1nc(-c2cnn(C(C)C3CCOCC3)c2)cc(=O)[nH]1` (stereo not drawn) [Example 68, 2-methyl-6-(1-(1-(tetrahydro-2H-pyran-4-yl)ethyl)-1H-pyrazol-4-yl)pyrimidin-4(3H)-one], the Ki is reported as 40100 nM.
Compound `Cc1nc(-c2cnn(C(C)c3cccc(C(F)(F)F)c3)c2)cc(=O)[nH]1` (stereo not drawn) [Example 73, 2-methyl-6-(1-(1-(3-(trifluoromethyl)phenyl)ethyl)-1H-pyrazol-4-yl)pyrimidin-4(3H)-one] has a Ki of 6380 nM.
Work on `Cc1nc(-c2ccnn2C(C)c2ccc(C(F)(F)F)cc2)cc(=O)[nH]1` (stereo not drawn) [Example 74, 2-methyl-6-(1-(1-(4-(trifluoromethyl)phenyl)ethyl)-1H-pyrazol-5-yl)pyrimidin-4(3H)-one] yielded a Ki of 11000 nM.
Compound `Cc1nc(-c2ccn(C(C)c3ccc(OC(F)(F)F)cc3)n2)cc(=O)[nH]1` (stereo not drawn) [Example 75, 2-methyl-6-(1-(1-(4-(trifluoromethoxy)phenyl)ethyl)-1H-pyrazol-3-yl)pyrimidin-4(3H)-one] has a Ki of 3250 nM.
`Cc1nc(-c2ccnn2C(C)c2ccc(OC(F)(F)F)cc2)cc(=O)[nH]1` (stereo not drawn) [Example 76, 2-methyl-6-(1-(1-(4-(trifluoromethoxy)phenyl)ethyl)-1H-pyrazol-5-yl)pyrimidin-4(3H)-one] was tested, and the Ki was 15900 nM.
In the case of `Cc1nc(-c2c(C)nn(C(C)c3ccc(C(F)(F)F)cc3)c2C)cc(=O)[nH]1` (stereo not drawn) [Example 79, 6-(3,5-dimethyl-1-(1-(4-(trifluoromethyl)phenyl)ethyl)-1H-pyrazol-4-yl)-2-methylpyrimidin-4(3H)-one], the Ki is reported as 727 nM.
Work on `Cc1nc(-c2cnn(C(C)c3ccc(F)cc3)c2)cc(=O)[nH]1` (stereo not drawn) [Example 152, 6-(1-(1-(4-fluorophenyl)ethyl)-1H-pyrazol-4-yl)-2-methylpyrimidin-4(3H)-one] yielded a Ki of 4130 nM.
With `COC(=O)c1ccc(C(C)n2cc(-c3cc(=O)[nH]c(C)n3)cn2)cc1` (stereo not drawn) [Example 155, methyl 4-(1-(4-(2-methyl-6-oxo-1,6-dihydropyrimidin-4-yl)-1H-pyrazol-1-yl)ethyl)benzoate] the Ki was 3830 nM.
`Cc1nc(-c2cnn(C(C)c3ccccc3)c2)cc(=O)[nH]1` (stereo not drawn) [Example 156, 2-methyl-6-(1-(1-phenylethyl)-1H-pyrazol-4-yl)pyrimidin-4(3H)-one] was tested, and the Ki was 4890 nM.
In the case of `Cc1ccc(C(C)n2ccc(-c3cc(=O)[nH]c(C)n3)n2)cc1` (stereo not drawn) [Example 157, 2-methyl-6-(1-(1-(p-tolyl)ethyl)-1H-pyrazol-3-yl)pyrimidin-4(3H)-one], the Ki is reported as 48700 nM.
Compound `Cc1nc(-c2ccn(C(C)c3ccccc3)n2)cc(=O)[nH]1` (stereo not drawn) [Example 158, 2-methyl-6-(1-(1-phenylethyl)-1H-pyrazol-3-yl)pyrimidin-4(3H)-one] has a Ki of 18500 nM.
`Cc1nc(-c2ccn(C(C)c3cccc(C(F)(F)F)c3)n2)cc(=O)[nH]1` (stereo not drawn) [Example 159, 2-methyl-6-(1-(1-(3-(trifluoromethyl)phenyl)ethyl)-1H-pyrazol-3-yl)pyrimidin-4(3H)-one] showed a Ki of 25700 nM.
Compound `CCCC(c1ccc(C(F)(F)F)cc1)n1ccc(-c2cc(=O)[nH]c(C)n2)n1` (stereo not drawn) [Example 160, 2-methyl-6-(1-(1-(4-(trifluoromethyl)phenyl)butyl)-1H-pyrazol-3-yl)pyrimidin-4(3H)-one] has a Ki of 2300 nM.
For `Cc1nc(-c2ccn(C(C)c3ccc(F)cc3)n2)cc(=O)[nH]1` (stereo not drawn) [Example 161, 6-(1-(1-(4-fluorophenyl)ethyl)-1H-pyrazol-3-yl)-2-methylpyrimidin-4(3H)-one], the Ki was 13900 nM.
Work on `COC(=O)c1ccc(C(C)n2ccc(-c3cc(=O)[nH]c(C)n3)n2)cc1` (stereo not drawn) [Example 162, methyl 4-(1-(3-(2-methyl-6-oxo-1,6-dihydropyrimidin-4-yl)-1H-pyrazol-1-yl)ethyl)benzoate] yielded a Ki of 29800 nM.
